In ChEMBL document CHEMBL3046407, “Toxicity of monoterpenes against larvae and adults of Colorado potato beetle, Leptinotarsa decemlineata Say (Coleoptera: Chrysomelidae)” (2007):

Legend:
Format in all cases: functional
[1] = test system: Leptinotarsa decemlineata; assay: Insecticidal activity against second-instar larval stage of Leptinotarsa decemlineata infested potato leaves assessed as mortality at 10 ul after 48 hr (reference value: […] +/- 3.3%)
[2] = test system: Leptinotarsa decemlineata; assay: Insecticidal activity against adult Leptinotarsa decemlineata infested potato leaves assessed as mortality at 10 ul after 96 hr relative to control
[3] = test system: Leptinotarsa decemlineata; assay: Insecticidal activity against adult Leptinotarsa decemlineata infested potato leaves assessed as mortality at 10 ul after 12 hr relative to control
[4] = test system: Leptinotarsa decemlineata; assay: Insecticidal activity against third-instar larval stage of Leptinotarsa decemlineata infested potato leaves assessed as mortality at 10 ul after 48 hr (reference value: […] +/- 3.3%)
[5] = test system: Leptinotarsa decemlineata; assay: Insecticidal activity against adult Leptinotarsa decemlineata infested potato leaves assessed as mortality at 20 ul after 48 hr relative to control
[6] = test system: Leptinotarsa decemlineata; assay: Insecticidal activity against first-instar larval stage of Leptinotarsa decemlineata infested potato leaves assessed as mortality at 20 ul after 96 hr relative to control
[7] = test system: Leptinotarsa decemlineata; assay: Insecticidal activity against adult Leptinotarsa decemlineata infested potato leaves assessed as mortality at 10 ul after 48 hr relative to control
[8] = test system: Leptinotarsa decemlineata; assay: Insecticidal activity against second-instar larval stage of Leptinotarsa decemlineata infested potato leaves assessed as mortality at 20 ul after 12 hr relative to control
[9] = test system: Leptinotarsa decemlineata; assay: Insecticidal activity against adult Leptinotarsa decemlineata infested potato leaves assessed as mortality at 20 ul after 96 hr relative to control
[10] = test system: Leptinotarsa decemlineata; assay: Insecticidal activity against third-instar larval stage of Leptinotarsa decemlineata infested potato leaves assessed as mortality at 10 ul after 24 hr relative to control
[11] = test system: Leptinotarsa decemlineata; assay: Insecticidal activity against third-instar larval stage of Leptinotarsa decemlineata infested potato leaves assessed as mortality at 20 ul after 24 hr relative to control
[12] = test system: Leptinotarsa decemlineata; assay: Insecticidal activity against first-instar larval stage of Leptinotarsa decemlineata infested potato leaves assessed as mortality at 10 ul after 48 hr relative to control
[13] = test system: Leptinotarsa decemlineata; assay: Insecticidal activity against first-instar larval stage of Leptinotarsa decemlineata infested potato leaves assessed as mortality at 10 ul after 12 hr relative to control
[14] = test system: Leptinotarsa decemlineata; assay: Insecticidal activity against adult Leptinotarsa decemlineata infested potato leaves assessed as mortality at 20 ul after 12 hr relative to control
[15] = test system: Leptinotarsa decemlineata; assay: Insecticidal activity against adult Leptinotarsa decemlineata infested potato leaves assessed as mortality at 10 ul after 24 hr relative to control
[16] = test system: Leptinotarsa decemlineata; assay: Insecticidal activity against second-instar larval stage of Leptinotarsa decemlineata infested potato leaves assessed as mortality at 10 ul after 24 hr (reference value: […] +/- 3.3%)
[17] = test system: Leptinotarsa decemlineata; assay: Insecticidal activity against second-instar larval stage of Leptinotarsa decemlineata infested potato leaves assessed as mortality at 20 ul after 48 hr (reference value: […] +/- 3.3%)
[18] = test system: Leptinotarsa decemlineata; assay: Insecticidal activity against second-instar larval stage of Leptinotarsa decemlineata infested potato leaves assessed as mortality at 10 ul after 96 hr (reference value: […] +/- 3.3%)
[19] = test system: Leptinotarsa decemlineata; assay: Insecticidal activity against second-instar larval stage of Leptinotarsa decemlineata infested potato leaves assessed as mortality at 10 ul after 12 hr relative to control
[20] = test system: Leptinotarsa decemlineata; assay: Insecticidal activity against first-instar larval stage of Leptinotarsa decemlineata infested potato leaves assessed as mortality at 10 ul after 24 hr relative to control
[21] = test system: Leptinotarsa decemlineata; assay: Insecticidal activity against third-instar larval stage of Leptinotarsa decemlineata infested potato leaves assessed as mortality at 20 ul after 12 hr relative to control
[22] = test system: Leptinotarsa decemlineata; assay: Insecticidal activity against second-instar larval stage of Leptinotarsa decemlineata infested potato leaves assessed as mortality at 20 ul after 24 hr (reference value: […] +/- 3.3%)
[23] = test system: Leptinotarsa decemlineata; assay: Insecticidal activity against third-instar larval stage of Leptinotarsa decemlineata infested potato leaves assessed as mortality at 10 ul after 96 hr (reference value: […] +/- 3.3%)
[24] = test system: Leptinotarsa decemlineata; assay: Insecticidal activity against third-instar larval stage of Leptinotarsa decemlineata infested potato leaves assessed as mortality at 20 ul after 96 hr (reference value: […] +/- 3.3%)
[25] = test system: Leptinotarsa decemlineata; assay: Insecticidal activity against first-instar larval stage of Leptinotarsa decemlineata infested potato leaves assessed as mortality at 20 ul after 24 hr relative to control
[26] = test system: Leptinotarsa decemlineata; assay: Insecticidal activity against first-instar larval stage of Leptinotarsa decemlineata infested potato leaves assessed as mortality at 10 ul after 96 hr relative to control
[27] = test system: Leptinotarsa decemlineata; assay: Insecticidal activity against first-instar larval stage of Leptinotarsa decemlineata infested potato leaves assessed as mortality at 20 ul after 48 hr relative to control
[28] = test system: Leptinotarsa decemlineata; assay: Insecticidal activity against third-instar larval stage of Leptinotarsa decemlineata infested potato leaves assessed as mortality at 20 ul after 48 hr (reference value: […] +/- 3.3%)
[29] = test system: Leptinotarsa decemlineata; assay: Insecticidal activity against third-instar larval stage of Leptinotarsa decemlineata infested potato leaves assessed as mortality at 10 ul after 12 hr relative to control
[30] = test system: Leptinotarsa decemlineata; assay: Insecticidal activity against second-instar larval stage of Leptinotarsa decemlineata infested potato leaves assessed as mortality at 20 ul after 96 hr (reference value: […] +/- 3.3%)
[31] = test system: Leptinotarsa decemlineata; assay: Insecticidal activity against first-instar larval stage of Leptinotarsa decemlineata infested potato leaves assessed as mortality at 20 ul after 12 hr relative to control
[32] = test system: Leptinotarsa decemlineata; assay: Insecticidal activity against adult Leptinotarsa decemlineata infested potato leaves assessed as mortality at 20 ul after 24 hr relative to control

## CC(C)=CCC[C@@H](C)CC=O [CITRONELLAL]
[1]
  mortality: 76.7%
[2]
  mortality: 100%
[3]
  mortality: 6.7%
[4]
  mortality: 20%
[5]
  mortality: 80%
[6]
  mortality: 100%
[7]
  mortality: 100%
[8]
  mortality: 23.3%
[9]
  mortality: 86.7%
[10]
  mortality: 20%
[11]
  mortality: 20%
[12]
  mortality: 76.7%
[13]
  mortality: 6.7%
[14]
  mortality: 16.7%
[15]
  mortality: 90%
[16]
  mortality: 53.3%
[17]
  mortality: 93.3%
[18]
  mortality: 80%
[19]
  mortality: 20%
[20]
  mortality: 43.3%
[21]
  mortality: 10%
[22]
  mortality: 80%
[23]
  mortality: 26.7%
[24]
  mortality: 33.3%
[25]
  mortality: 76.7%
[26]
  mortality: 86.7%
[27]
  mortality: 90%
[28]
  mortality: 26.7%
[29]
  mortality: 20%
[30]
  mortality: 93.3%
[31]
  mortality: 33.3%

## CC(C)=CCC/C(C)=C\CO [NEROL]
[1]
  mortality: 36.7%
[2]
  mortality: 23.3%
[3]
  mortality: 13.3%
[4]
  mortality: 73.3%
[5]
  mortality: 10%
[6]
  mortality: 56.7%
[7]
  mortality: 20%
[8]
  mortality: 10%
[32]
  mortality: 6.7%
[9]
  mortality: 13.3%
[10]
  mortality: 56.7%
[11]
  mortality: 16.7%
[12]
  mortality: 36.7%
[13]
  mortality: 13.3%
[14]
  mortality: 6.7%
[15]
  mortality: 16.7%
[16]
  mortality: 16.7%
[17]
  mortality: 46.7%
[18]
  mortality: 56.7%
[19]
  mortality: 13.3%
[20]
  mortality: 16.7%
[21]
  mortality: 16.7%
[22]
  mortality: 16.7%
[23]
  mortality: 80%
[24]
  mortality: 46.7%
[25]
  mortality: 16.7%
[26]
  mortality: 56.7%
[27]
  mortality: 46.7%
[28]
  mortality: 30%
[29]
  mortality: 26.7%
[30]
  mortality: 53.3%
[31]
  mortality: 10%

## C=C(C)C1CCC2(C)OC2C1 (stereo unspecified) [LIMONENE OXIDE]
[1]
  mortality: 83.3%
[2]
  mortality: 30%
[3]
  mortality: 10%
[4]
  mortality: 43.3%
[5]
  mortality: 40%
[6]
  mortality: 100%
[7]
  mortality: 20%
[8]
  mortality: 60%
[32]
  mortality: 20%
[9]
  mortality: 56.7%
[10]
  mortality: 23.3%
[11]
  mortality: 33.3%
[12]
  mortality: 80%
[13]
  mortality: 26.7%
[14]
  mortality: 16.7%
[15]
  mortality: 16.7%
[16]
  mortality: 73.3%
[17]
  mortality: 93.3%
[18]
  mortality: 90%
[19]
  mortality: 30%
[20]
  mortality: 53.3%
[21]
  mortality: 13.3%
[22]
  mortality: 93.3%
[23]
  mortality: 46.7%
[24]
  mortality: 56.7%
[25]
  mortality: 93.3%
[26]
  mortality: 93.3%
[27]
  mortality: 100%
[28]
  mortality: 46.7%
[29]
  mortality: 13.3%
[30]
  mortality: 96.7%
[31]
  mortality: 70%

## CC(=O)OC/C=C(/C)CCC=C(C)C [NERYL ACETATE]
[1]
  mortality: 0%
[2]
  mortality: 70%
[3]
  mortality: 0%
[4]
  mortality: 6.7%
[5]
  mortality: 13.3%
[6]
  mortality: 10%
[7]
  mortality: 26.7%
[8]
  mortality: 3.3%
[32]
  mortality: 10%
[9]
  mortality: 30%
[10]
  mortality: 0%
[11]
  mortality: 23.3%
[12]
  mortality: 0%
[13]
  mortality: 0%
[14]
  mortality: 3.3%
[15]
  mortality: 20%
[16]
  mortality: 0%
[17]
  mortality: 3.3%
[18]
  mortality: 0%
[19]
  mortality: 0%
[20]
  mortality: 0%
[21]
  mortality: 23.3%
[22]
  mortality: 3.3%
[23]
  mortality: 10%
[24]
  mortality: 43.3%
[25]
  mortality: 10%
[26]
  mortality: 0%
[27]
  mortality: 10%
[28]
  mortality: 33.3%
[29]
  mortality: 0%
[30]
  mortality: 6.7%
[31]
  mortality: 6.7%

## C=CC(=C)CCC=C(C)C [MYRCENE]
[1]
  mortality: 93.3%
[2]
  mortality: 100%
[3]
  mortality: 46.7%
[4]
  mortality: 56.7%
[5]
  mortality: 96.7%
[6]
  mortality: 100%
[7]
  mortality: 100%
[8]
  mortality: 73.3%
[32]
  mortality: 90%
[9]
  mortality: 100%
[10]
  mortality: 53.3%
[11]
  mortality: 70%
[12]
  mortality: 93.3%
[13]
  mortality: 20%
[14]
  mortality: 73.3%
[15]
  mortality: 93.3%
[16]
  mortality: 93.3%
[17]
  mortality: 100%
[18]
  mortality: 93.3%
[19]
  mortality: 56.7%
[20]
  mortality: 80%
[21]
  mortality: 36.7%
[22]
  mortality: 90%
[23]
  mortality: 60%
[24]
  mortality: 76.7%
[25]
  mortality: 90%
[26]
  mortality: 93.3%
[27]
  mortality: 100%
[28]
  mortality: 73.3%
[29]
  mortality: 26.7%
[30]
  mortality: 100%
[31]
  mortality: 36.7%

## C=CC(C)(CCC=C(C)C)OC(C)=O (stereo unspecified) [LINALYL ACETATE]
[1]
  mortality: 80%
[2]
  mortality: 23.3%
[3]
  mortality: 0%
[5]
  mortality: 63.3%
[6]
  mortality: 69.3%
[7]
  mortality: 16.7%
[8]
  mortality: 30%
[32]
  mortality: 23.3%
[9]
  mortality: 70%
[10]
  mortality: 30%
[11]
  mortality: 73.3%
[12]
  mortality: 70%
[13]
  mortality: 16.7%
[14]
  mortality: 10%
[15]
  mortality: 0%
[16]
  mortality: 36.7%
[17]
  mortality: 93.3%
[18]
  mortality: 86.7%
[19]
  mortality: 20%
[20]
  mortality: 30%
[21]
  mortality: 30%
[22]
  mortality: 63.3%
[23]
  mortality: 33.3%
[24]
  mortality: 83.3%
[25]
  mortality: 63.3%
[26]
  mortality: 86.7%
[27]
  mortality: 93.3%
[28]
  mortality: 76.7%
[29]
  mortality: 23.3%
[30]
  mortality: 93.3%
[31]
  mortality: 26.7%

## CC1=CCC2CC1C2(C)C (stereo not drawn) [ALPHA-PINENE]
[1]
  mortality: 63.3%
[2]
  mortality: 100%
[3]
  mortality: 100%
[5]
  mortality: 100%
[6]
  mortality: 66.7%
[7]
  mortality: 100%
[8]
  mortality: 20%
[32]
  mortality: 100%
[9]
  mortality: 100%
[10]
  mortality: 3.3%
[11]
  mortality: 16.7%
[12]
  mortality: 63.3%
[13]
  mortality: 26.7%
[14]
  mortality: 96.7%
[15]
  mortality: 100%
[16]
  mortality: 50%
[17]
  mortality: 80%
[18]
  mortality: 66.7%
[19]
  mortality: 26.7%
[20]
  mortality: 50%
[21]
  mortality: 13.3%
[22]
  mortality: 70%
[23]
  mortality: 6.7%
[24]
  mortality: 36.7%
[25]
  mortality: 43.3%
[26]
  mortality: 66.7%
[27]
  mortality: 56.7%
[28]
  mortality: 30%
[29]
  mortality: 3.3%
[30]
  mortality: 86.7%
[31]
  mortality: 13.3%
